Laboratory results taken from ChEMBL document CHEMBL4680376, “Discovery of Orally Active and Nonsteroidal Farnesoid X Receptor (FXR) Antagonist with Propensity for Accumulation and Responsiveness in Ileum” (ACS Med Chem Lett, 2021).

Key:
[1] = in vivo; conditions: Sprague-Dawley, rat, po, 30 mg/kg
[2] = rat, in vivo, iv, 1 mg/kg, 6 h
[3] = system: Huh-7; assay: Cytotoxicity against human HuH-7 cells by MTT assay
[4] = Metabolic stability in rat liver microsomes assessed as compound remaining at 1 ug/ml incubated for 30 mins by LC-MS/MS analysis; conditions: at 1 µg/mL
[5] = in vivo; conditions: Sprague-Dawley, rat, po, 30 mg/kg; remark: listed apart in the source
[6] = in vivo; conditions: Sprague-Dawley, rat, po, 30 mg/kg; remark: listed apart in the source
[7] = in vivo; conditions: Sprague-Dawley, rat, po, 30 mg/kg; remark: listed apart in the source
[8] = Metabolic stability in mouse liver microsomes assessed as compound remaining at 1 ug/ml incubated for 30 mins by LC-MS/MS analysis; conditions: at 1 µg/mL
[9] = Plasma concentration in Sprague-Dawley rat at 30 mg/kg, po measured after 6 hrs by LC-MS/MS analysis
[10] = target: T1, Bile acid receptor (Homo sapiens, UniProt Q96RI1); assay: Antagonist activity against recombinant human FXR transfected in human HuH-7 cells co-transfected with FRE-luciferase assessed as reduction in CDCA-induced luciferase expression incubated for 24 hrs by luciferase reporter gene assay
T1 sequence (Q96RI1 whole entry): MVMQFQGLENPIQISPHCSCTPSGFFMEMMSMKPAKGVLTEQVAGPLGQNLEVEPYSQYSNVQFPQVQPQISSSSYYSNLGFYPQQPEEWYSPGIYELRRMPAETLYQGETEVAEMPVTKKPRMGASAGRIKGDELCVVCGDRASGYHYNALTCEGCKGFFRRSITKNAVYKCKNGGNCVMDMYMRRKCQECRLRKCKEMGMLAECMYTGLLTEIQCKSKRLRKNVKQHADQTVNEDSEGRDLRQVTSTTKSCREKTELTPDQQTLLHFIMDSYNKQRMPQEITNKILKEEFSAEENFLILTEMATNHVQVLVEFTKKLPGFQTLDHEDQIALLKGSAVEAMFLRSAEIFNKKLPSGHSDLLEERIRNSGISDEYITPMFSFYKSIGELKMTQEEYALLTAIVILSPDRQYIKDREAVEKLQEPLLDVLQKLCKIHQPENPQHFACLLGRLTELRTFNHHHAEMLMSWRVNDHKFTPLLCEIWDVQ

[11] = target: T1, Bile acid receptor; assay: Antagonist activity at recombinant GST-tagged FXR LBD (unknown origin) assessed as inhibition of GW4064-induced Fluorecein-SRC2-2 coactivator peptide recruitment by LanthaScreen TR-FRET co-regulator assay

Row | SMILES | Cmax at 6 h [1] | AUC [2] | IC50 [3] | remaining at 0.5 h, 1 ug/ml [4] | Tmax at 6 h [5] | bioavailability at 6 h [6] | AUC(0-t) at 6 h [7] | remaining at 0.5 h, 1 ug/ml [8] | concentration at 6 h [9] | IC50 [10] | IC50 [11]
1 | CC(C)C(=O)N1CCC(C[C@@H](c2nc3ccc(F)cc3n2C2CC2)N2C(=O)CN(c3ccc(Oc4ccc(F)cc4)cc3)C2=O)CC1 | 2850 ng/mL | 937 ng·h/mL | > 100000 nM | 84.4% | 3 h | 55.4% | 15600 ng·h/mL | 54% | 2480 ng/mL | – | –
2 | COc1ccc(Oc2ccc(N3CC(=O)N([C@@H](CC4CCN(C(=O)C(C)C)CC4)c4nc5ccc(C)cc5n4C)C3=O)cc2)cc1 | 483 ng/mL | – | > 100000 nM | 12.1% | 2 h | 18% | – | 2.4% | – | < 0.001 nM | –
3 | Cc1ccc2nc([C@H](CC3CCN(C(=O)C(C)C)CC3)N3C(=O)CN(c4ccc(Oc5ccc(F)cc5)cc4)C3=O)n(C)c2c1 | – | – | > 100000 nM | – | – | – | – | 10.6% | – | – | –
4 | CC(C)C(=O)N1CCC(C[C@@H](c2nc3ccccc3n2C2CC2)N2C(=O)CN(c3ccc(Oc4ccc(F)cc4)cc3)C2=O)CC1 | – | – | > 100000 nM | – | – | – | – | 29.4% | – | 1.8 nM | 140 nM
